According to article PMC10745882, “Investigation of Drug-Interaction Potential for Arthritis Dietary Supplements: Chondroitin Sulfate, Glucosamine, and Methylsulfonylmethane” (Molecules, 2023):

Experiments:
CYP2C19 = biological target: T1, CYP2C19 (Homo sapiens, UniProt P33261); assay: CYP inhibition assay in human liver microsomes (LC-MS/MS cocktail), mephenytoin to 4-OH-mephenytoin; assay type: in vitro ADME
T1 construct: Pooled human liver microsomes were purchased from BD Gentest; tissue BD Gentest; host or cells: pooled human liver microsomes
Description: For the experimental method, the reference method was used. Briefly, incubation mixtures were composed of 0.5 mg/mL human liver microsomes; varying concentrations of CS in DW (0.1, 0.3, 1, 3, 10, 30, 100, and 200 µM) or MSM in DW (0.1, 0.3, 1, 3, 10, 30, 100, 300, and 1000 µM) or GCS in DMSO (0.1, 0.3, 1, 3, 10, 30, 100, 300, and 1000 µM); a substrate mixture in DMSO (40 µM phenacetin for CYP1A2; 2.5 µM coumarin for CYP2A6; 80 µM bupropion for CYP2B6; 10 µM diclofenac for CYP2C9; 80 µM [±]-mephenytoin for CYP2C19; 5 µM dextromethorphan for CYP2D6; 2.5 µM midazolam and 30 µM testosterone for CYP3A4); and an NADPH generating system (NGS; 0.1 M glucose-6-phosphate, 10 mg/mL β-NADP^+, and 1 U/mL glucose-6-phosphate dehydrogenase) in a total volume of 200 µL potassium phosphate buffer (0.1 M, pH 7.4). The reaction mixture, excluding NGS, underwent pre-incubation at 37 °C for 5 min, followed by further incubation with NGS for 30 min in a water bath. Well-established selective CYP inhibitors were employed as positive controls (40 µM ketoconazole for CYP3A4, 50 µM furafyllin for CYP1A2, 10 µM quinidine for CYP2D6, 125 µM ticlopidine for CYP2C19 and CYP2B6, 10 µM 8-methoxsalen for CYP2A6, and 10 µM sulfaphenazole for CYP2C9). Post incubation, the reaction was halted by adding 50 µL ice-cold 1% formic acid acetonitrile. After centrifugation at 13,200 rpm for 5 min, the supernatant was collected from the sample and subjected to analysis via an LC-MS/MS system. All experiments were performed in triplicate.
For the experimental method, the reference method was used. The LC-MS/MS system utilized in this study consisted of an Agilent 1260 binary pump HPLC system coupled with the Agilent 6460 Triple Quadrupole mass spectrometer (Agilent Technologies, Santa Clara, CA, USA), featuring an electrospray ionization source. Chromatographic separation was achieved using a Fortis C8 column (2.1 × 100 mm, 5.0 µm; Fortis Technologies Ltd., Neston, UK). The HPLC mobile phases comprised (A) 0.1% formic acid and (B) 0.1% formic acid in 90% acetonitrile. A gradient elution method was employed with an initial solvent B concentration of 15% and a flow rate of 0.25 mL/min. […] The total run time was 11.0 min, and the injection volume was 5 µL. Mass detection was conducted in the positive ion mode using multiple reaction monitoring (MRM). Specific MRM transitions for each analyte are detailed in Table S4.

[1] = parameters: method as in doi:10.4172/2155-9600.1000748, PMID 16168682, PMID 19912983; conditions: common daily dose 1500 mg/day; cited from earlier work
[2] = parameters: method as in PMID 25417766; conditions: rats; 1:4 (paracetamol:GCS) ratio; cited from earlier work
[3] = parameters: method as in PMID 16942821, PMID 37489348, PMID 31331587; conditions: typical doses as monotherapy; cited from earlier work

T1 sequence (P33261 whole entry): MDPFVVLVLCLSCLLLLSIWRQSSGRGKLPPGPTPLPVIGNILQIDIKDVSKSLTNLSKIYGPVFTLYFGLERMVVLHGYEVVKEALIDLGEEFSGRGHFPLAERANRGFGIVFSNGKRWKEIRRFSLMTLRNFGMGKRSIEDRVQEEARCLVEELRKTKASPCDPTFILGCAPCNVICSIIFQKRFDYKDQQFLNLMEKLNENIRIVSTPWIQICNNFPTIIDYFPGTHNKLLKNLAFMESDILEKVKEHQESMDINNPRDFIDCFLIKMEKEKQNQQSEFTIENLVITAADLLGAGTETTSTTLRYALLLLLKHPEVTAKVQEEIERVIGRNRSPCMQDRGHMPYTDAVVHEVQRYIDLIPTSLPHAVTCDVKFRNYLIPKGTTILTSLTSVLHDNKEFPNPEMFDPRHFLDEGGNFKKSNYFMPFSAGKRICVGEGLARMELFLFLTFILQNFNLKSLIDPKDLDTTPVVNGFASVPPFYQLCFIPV

Structure (SMILES): N[C@H]1C(O)O[C@H](CO)[C@@H](O)[C@@H]1O (stereo partly drawn) [GCS, glucosamine]
- Remaining Activities (% of Control, n = 3) (CYP2C19; test substance 0.3 μM): 128.4 ± 27.9 % of Control
- Remaining Activities (% of Control, n = 3) (CYP2C19; test substance 1 μM): 102.5 ± 3.0 % of Control
- Remaining Activities (% of Control, n = 3) (CYP2C19; test substance 3 μM): 102.6 ± 8.8 % of Control
- Remaining Activities (% of Control, n = 3) (CYP2C19; test substance 10 μM): 101.9 ± 4.3 % of Control
- Remaining Activities (% of Control, n = 3) (CYP2C19; test substance 30 μM): 90.5 ± 8.7 % of Control
- Remaining Activities (% of Control, n = 3) (CYP2C19; test substance 100 μM): 100.3 ± 3.7 % of Control
- Remaining Activities (% of Control, n = 3) (CYP2C19; test substance 300 μM): 95.5 ± 5.6 % of Control
- Remaining Activities (% of Control, n = 3) (CYP2C19; test substance 1000 μM): 88.7 ± 7.3 % of Control
- maximum plasma concentrations [1]: ~9 µM
- paracetamol's AUC when co-administered with GCS [2]: increase
- paracetamol's maximum plasma concentration when co-administered with GCS [2]: increase
- adverse effects in clinical trials [3]: do not exhibit significant adverse effects
